Measurements taken from US20080268013A1, “Polyethylene Oxide Polymers Including Anti-Inflammatory Glycodendrons” (EMORY UNIVERSITY, priority 2005, published 2008).

What was measured:
[1] = test system: neutrophil and macrophage recruitment; assay: Thioglycollate induced murine model of peritoneal inflammation; type: in vivo, mouse; conditions: C57BL mice
Experimental: Acute inflammation was induced in a mouse model by thioglycollate injection into the peritoneal cavity.
Thioglycollate induced murine model of peritoneal inflammation. Mice (C57BL, male, 6-8 weeks old) were injected intraperitoneally with 2 mL of 3% thioglycollate broth. Five minutes later, animals received intravenous injections of 0.2 mL sterile pyrogen-free saline (S) with and without heparin (H) or analogs (3c) (0.5 mg/mouse with 0.2 ml saline). Mice were sacrificed after 3 hours and peritoneal cells harvested by lavage with 8 mL of ice-cold phosphate buffered saline (PBS) containing 3 mM EDTA. Peritoneal cells were counted and cells stained for 30 minutes at 4° C. with FITC-conjugated rat anti-mouse Gr-1 mAb diluted in PBS containing 2.5% FBS. After washing three times with PBS, FACScan analysis was performed as described by Wang et al. (2002) and was used to sort, count and analyze the percentage of neutrophils and macrophages which were converted to the cell number using the formula N/M=Total cell number X % of NIM, respectively (N:Neutrophil; M: Macrophages). The cells were gated (FACS) expressing a high level of Gr-1 antigen (N) and Mac-1 (M). (See additional ref: Lagasse; E., Weissman; I. J. Immunological Meth. 1996, 197, 139-150). Statistical differences among groups were analyzed by ANOVA method using StatView software.

E-selectin = assay: U937 cell adhesion to immobilized E-selectin; type: cell-based; conditions: immobilized E-selectin chimera
Experimental: U937 cell binding to immobilized E-, L- or P-selectin. […] After blocking the plate with 10% BSA in PBS, P-selectin (0.05 μg/well), L-selectin (4 μg/well) or E-selectin (1 μg/well) chimeras were added. After 1 hr, wells were washed with blocking solution. U937 cells were grown in RPMI-1640 medium (containing 10% fetal bovine serum (FBS), 100 U/ml penicillin and 100 μg/ml streptomycin in an atmosphere of 5% CO2 in air and 100% relative humidity. The cells were fluorescently labeled with 10 μM calcein AM in RPMI 1640 medium containing 2.5% FBS for 30 min at 37° C. The cells were collected by low speed centrifugation, washed three times with RPMI 1640 medium, and resuspended at a density of 2×10^6 cells/mL in medium without FBS. Heparin and test compounds, or 10 mM sodium EDTA (negative control) were added at 50 μL/well, and then the fluorescently labeled U937 cell suspension (50 μL/well) was added and incubated for 30 min at room temperature. Non-adherent cells were removed by rinsing the plates three times with PBS, and the number of adherent cells was quantified by measuring the fluorescence intensity at 485 nm after […] 2% Triton X-100 in 0.1 M Tris-HCl, pH 9.5. Raw data were converted to relative fluorescence intensity (RFI) for comparative purposes.

With heparin the “in vivo activity on inflammatory cell recruitment (in words)” value [1] was “inhibited inflammatory cell recruitment to a similar degree” and the “inhibitory activity toward E-selectin (U937 cell adhesion)” value (E-selectin) was “Neither heparin nor 3c exhibited substantial inhibitory activity”.
